Experimental data reported in US9274128B2, “Transcriptional repression leading to parkinson's disease” (priority 2010, dated 2016).
Peptide text beside a SMILES is read from it. * marks the point of attachment. Cbz = O=C(OCc1ccccc1)*

Test system: proteasome
Experiment: PARIS steady state levels in SH-SY5Y cells treated with proteasome inhibitor (immunoblot)
Format: cell-based, human
Settings: for PARIS steady state level: 10 μM MG-132 vs DMSO control, normalized to β-actin
Description: Human neuroblastoma SH-SY5Y cells (ATCC, Manassas, Va.) were grown in DMEM containing 10% FBS and antibiotics in a humidified 5% CO2/95% air atmosphere at 37° C. For transient transfection, cells were transfected with indicated amounts of target vector using Lipofectamine Plus (Invitrogen), according to manufacturer's instructions. For co-immunoprecipitation from cell cultures, SH-SY5Y cells were transfected with 2 μg of each plasmid, unless otherwise indicated. For the ubiquitination assay, SH-SY5Y cells were transiently transfected with 2 μg of pRK5-Myc-tagged parkin, Myc-tagged parkin (C431F, G430D, R275W, and Q311 X) pCMV-FLAG-PARIS, and 2 μg of pMT123-HA-ubiquitin plasmids for 48 hours. For the luciferase assay SH-SY5Y cells were transiently transfected with pCMV-empty vector or pCMV-FLAG-PARIS with either wild type or Q311X parkin, or pGL3-Basic, pGL3-PGC-1α promoter-Luciferase, or pGL3-PGC-1α promoter deletion mutant (a gift from Akyoshi Fukamizu, University of Tsukuba, Japan) (Daitoku et al., 2003) for firefly Luciferase assay and 0.1 μg pRL-TK vector (Promega) for Renilla luciferase control.
The tissues including nine different organs, eight different brain regions from C57/BL6 mouse, human brain, and mouse brain were homogenized in lysis buffer [10 mM Tris-HCl, pH 7.4, 150 mM NaCl, 5 mM EDTA, 0.5% Nonidet P-40, 10 mM Na-β-glycerophosphate, […] I and II (Sigma), and Complete Protease Inhibitor Mixture (Roche)], using a Diax 900 homogenizer. After homogenization, samples were rotated at 4° C. for 30 min for complete lysis, then the homogenate was centrifuged at 52,000 rpm for 20 min, and the resulting fractions were collected. Protein levels were quantified using the BCA kit (Pierce) with BSA standards and analyzed by immunoblot. Immunoblotting was performed with an antibody of interest and was performed with chemiluminescence (Pierce). The densitometric analyses of the bands were performed using ImageJ (NIH, http://rsb.info.nih.gov/ij/). Data are expressed as mean±S.E.M. The results were evaluated for statistical significance by applying the unpaired two-tailed Student's t-test or Student-Newman-Keuls. Differences were considered significant when p<0.05.

## CC(C)C[C@@H](C=O)NC(=O)[C@H](CC(C)C)NC(=O)[C@H](CC(C)C)NC(=O)OCc1ccccc1 [MG132] (Cbz-Leu-Leu-Leu-aldehyde)
  PARIS steady state level: increased approximately two to three fold
Listed as MG-132
  PARIS steady state level: increases PARIS steady state levels
MYC-parkin to FLAG-PARIS 4 to 1, 10 μM MG-132
  Parkin-mediated degradation of FLAG-PARIS: blocked
MYC-parkin to FLAG-PARIS 4 to 1, 10 μM MG-132, listed as MG-132
  Parkin-mediated degradation of FLAG-PARIS: prevents the degradation of FLAG-PARIS
